Test results taken from publication PMC4632738, “New Peptide-Conjugated Chlorin-Type Photosensitizer Targeting Neuropilin-1 for Anti-Vascular Targeted Photodynamic Therapy” (International Journal of Molecular Sciences, 2015).
“Also recorded” adds a separate entry of the source. Read-outs that look alike come from different tables or passages of the source. Ends that are not written are not given here. TPC = not defined here; Ahx = NCCCCCC(=O)O

How the values were obtained:
[1] = target: T1, recombinant NRP-1 protein (Homo sapiens, UniProt O14786); details: cited from earlier work
T1 sequence (O14786 22-923): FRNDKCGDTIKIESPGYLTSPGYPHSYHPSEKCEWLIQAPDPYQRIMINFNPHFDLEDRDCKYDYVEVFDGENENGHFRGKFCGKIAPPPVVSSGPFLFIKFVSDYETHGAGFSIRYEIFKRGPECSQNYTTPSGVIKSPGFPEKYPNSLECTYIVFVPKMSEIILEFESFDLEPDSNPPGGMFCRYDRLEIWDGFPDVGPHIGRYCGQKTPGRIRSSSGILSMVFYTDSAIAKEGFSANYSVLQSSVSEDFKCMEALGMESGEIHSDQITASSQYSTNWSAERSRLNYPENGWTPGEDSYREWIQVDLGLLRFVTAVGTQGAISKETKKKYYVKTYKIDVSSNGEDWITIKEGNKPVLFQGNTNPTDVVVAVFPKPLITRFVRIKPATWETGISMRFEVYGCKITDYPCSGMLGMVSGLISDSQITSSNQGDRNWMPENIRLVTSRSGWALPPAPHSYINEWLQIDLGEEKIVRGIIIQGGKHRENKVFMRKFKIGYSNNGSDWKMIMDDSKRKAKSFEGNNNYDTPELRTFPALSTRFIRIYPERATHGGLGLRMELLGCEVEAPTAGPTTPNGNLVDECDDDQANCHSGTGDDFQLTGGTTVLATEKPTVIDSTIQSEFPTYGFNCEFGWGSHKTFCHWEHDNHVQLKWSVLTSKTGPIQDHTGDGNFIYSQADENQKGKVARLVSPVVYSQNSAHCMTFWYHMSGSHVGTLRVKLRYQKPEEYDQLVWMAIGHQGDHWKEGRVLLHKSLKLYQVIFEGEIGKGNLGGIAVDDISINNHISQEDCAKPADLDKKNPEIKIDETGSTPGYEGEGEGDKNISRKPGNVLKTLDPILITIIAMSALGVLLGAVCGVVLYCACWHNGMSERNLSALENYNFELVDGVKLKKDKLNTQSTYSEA

[2] = Shake flask octanol/PBS pH 7.4 distribution coefficient; format: physicochemical; details: expressed as log, mean ± S.D.
Description: The distribution coefficient values at pH 7.4 from the shake flask method and the retention time from HPLC analysis of TPC and the conjugates are summarized in Table 2. The TPC-spacer-peptides were analyzed by HPLC (column Altech, Apollo C18 reverse-phase (5 μm; 250 mm × 4.6 mm)) on a Shimadzu LC-10ATvp, monitored by a UV/Visible detector at 214 and 415 nm on a SPD-10A UV-Visible detector. […] The log DpH7.4 value for TPC–Ahx–ATWLPPR obtained (2.61 ± 0.2) was also consistent with data published by Tirand et al., confirming the hydrophobic characteristic of TPC and the TPC–Ahx–ATWLPPR conjugate.
Hydrophilic and hydrophobic characteristics were also evaluated using the “shake flask” method to determine the solubility of the free TPC and the conjugates. […] The distribution coefficient, DpH7.4 was then expressed as log (mean ± S.D., n = 6).

[3] = Photophysical characterization (UV-Vis absorption, fluorescence and singlet oxygen quantum yields); format: physicochemical; details: ethanol, room temperature; for Molar Extinction Coefficient Soret ε415: 415 nm; for Molar Extinction Coefficient QIV ε516: 516 nm; for Molar Extinction Coefficient QIII ε543: 543 nm; for Molar Extinction Coefficient QII ε598: 598 nm; for Molar Extinction Coefficient QI ε650: 650 nm; for Fluorescence quantum yield Φf: ±0.02, reference TPP in toluene; for Singlet oxygen quantum yield Φ∆: ±0.05, reference rose Bengal in ethanol
Excerpt: Table 3 summarizes the molar extinction coefficient values of the six conjugates as well as their fluorescence and singlet oxygen quantum yield values.
The photophysical properties of TPC and the TPC–peptide conjugates were characterized using three different techniques; UV/visible absorption (Perkin Elmer Lambda 2 UV-Vis spectrophotometer, Courtaboeuf, France), fluorescence emission (SPEX Fluorolog-3 spectrofluorometer, Jobin Yvon, Longjumeau, Paris, France) and singlet oxygen emission. For UV-Vis measurements, the samples of TPC and the six conjugates were diluted in ethanol and their spectra were determined in the range of 300 to 800 nm. For fluorescence emission spectra, samples with an absorption at 415 nm equal to 0.200 (±0.02) were prepared. Solvent refractive index and absorption efficiencies of fluorescence quantum yields (Φf) were calculated based on a TPP solution in toluene as a fluorescence standard reference (Φf(ref) = 0.11) as described by Equation (2): (2) ϕf=ϕf(ref)×I/Iref×Aref/A×(n/nref)^2 where A and Aref correspond to the absorbance at 415 nm of the sample and TPP, respectively, while I and Iref are the areas under the fluorescence spectra between 600 and 750 nm of the sample and TPP, respectively. n and nref are the refractive indices of solvents used for the sample and TPP, respectively (n/nethanol = 1.361, nref/ntoluene = 1.496).
Singlet oxygen emission spectra were recorded on SPEX 1680 with […] double monochromator with a Xenon arc lamp as excitation source. Singlet oxygen generation was specifically detected at 1270 nm and the emission was monitored by using liquid nitrogen-cooled germanium-detector (EO-817P, North Coast Scientific, North Ridgeville, OH, USA). A solution of rose Bengal in ethanol was used as the reference, ΦΔ(ref) = 0.68 [25]. The singlet oxygen quantum yield was then determined using Equation (3): (3) ϕΔ=ϕΔ(ref)×I/Iref×Aref/A where A and Aref are the UV visible absorbance at 415 nm of the sample and rose Bengal (the reference), respectively, while I and Iref are the peak intensities of luminescence at 1270 nm of the sample and rose Bengal, respectively.

HUVEC = test system: HUVEC; design: method as in PMID 17283031; details: cited from earlier work; for Light doses 50 values: red light
[4] = target: T1, recombinant NRP-1 protein; assay: Competitive binding ELISA, displacement of biotinylated VEGF165
Description: The molecular affinity of the different TPC–peptide conjugates for recombinant NRP-1 protein was estimated through a competitive binding test using biotinylated VEGF165 to NRP-1 receptor recognition recombinant. As biotinylated VEGF165 binding to this receptor is heparin dependent, the competitive binding tests were performed in the presence of heparin (2 µg/mL).
The conjugates were first dissolved in DMSO and subsequently diluted in methanol. Tween-20 was added in the blocking buffer to assist in the solubilization of the conjugate. The samples were prepared in ten different concentrations ranging from 3 to 960 µM.

[5] = cited from earlier work
[6] = In vivo plasma concentration by HPLC after intravenous injection; details: mice, 2.8 mg/kg i.v., sampled at 1, 4 and 24 h
Description: The in vivo stability study was carried out with only two of the novel conjugates synthesized; TPC–PEG18–DKPPR and TPC–PEG18–TKPRR were selected because of to their interesting hydrophilicity properties. We selected TPC–Ahx–ATWLPPR conjugate as a reference based on our previous studies. Blood and tissue samples were weighed and kept at −80 °C in polypropylene tubes, until further processing. Extraction of the conjugates from the tissues required first a solubilization step, using TEM buffer (10 mM Tris, 1.66 mM EDTA, 5 mM molybdate, pH 7.4) and homogenization. […] Conjugates levels in the plasma and tissues were determined as a percentage of the injected dose per gram […] (% injected dose/g of tissue) or per milliliter plasma. […]
The in vivo stability analyses were performed by HPLC equipped with programmable software GOLD version 1.6 (Beckman Coulter, Fullerton, CA, USA), an auto sampler injector (507e, System Gold, Beckman Coulter) and a fluorescence detector (RF-10A XL, Shimadzu, Kyoto, Japan). […] Fluorescence excitation and emission wavelengths were detected at 416 and 652 nm, respectively. […] The conjugate levels in plasma and organs were determined from the peak areas and normalized based on standard calibration curves constructed earlier. The data were calculated as the mean value of three mice.

[7] = In vivo stability in plasma by MALDI-TOF MS; details: 24 h after administration, mice
Description: Female athymic Swiss nude/nude mice (7–9 weeks, weight range 20–25 g) were obtained from Harlan (Gannat, France). The in vivo study we conducted was based on the results obtained from the ELISA test conducted earlier. The conjugates of TPC–Ahx–ATWLPPR, TPC–PEG18–DKPPR and TPC–PEG18–TKPRR (2.8 mg/kg) were injected intravenously via the tail vein in ethanol–PEG 400–water (2:3:5, v/v/v). The mice were kept in the dark after the injection. After 1, 4 and 24 h, blood samples were collected and plasma was separated from the blood. The mice were sacrificed and tissues were carefully excised. All samples were kept in the dark at −80 °C in polypropylene tubes until further analysis.
MALDI-TOF MS analyses were carried out on a Bruker Reflex IV time-of-flight mass spectrometer (Bruker-Daltonic, Bremen, Germany) equipped with the SCOUT 384 probe ion source fitted with a nitrogen pulsed laser (337 nm, VSD-337ND model, Laser Science Inc., Boston, MA, USA). The laser output energy was 400 μJ/pulse. Positives ions were accelerated with a 200 ns extraction delay. The reflector voltage was 23 kV. […]
MALDI-TOF MS analyses were performed using 2,5-dihydroxybenzoic acid (DHB) (Sigma-Aldrich, Saint-Quentin-Fallavier, France) as the matrix. […] All samples were analyzed in duplicate.

[8] = design: method as in PMID 17283031; details: cited from earlier work

## O=C(O)c1ccc(-c2c3nc(c(-c4ccccc4)c4ccc([nH]4)c(-c4ccccc4)c4nc(c(-c5ccccc5)c5ccc2[nH]5)CC4)C=C3)cc1 [TPC, 5-(4-carboxyphenyl)-10,15,20-triphenyl chlorin]
[1]
  Displacement of the binding of VEGF165: failed to do so
[2]; n = 6, read-out: Shake Flask Method Distribution Coefficient, D (log D pH7.4)
  logD: 2.61 ± 0.2
[3]
  Molar Extinction Coefficient Soret ε415: 76000 L·M^−1·cm^−1
  Molar Extinction Coefficient QIV ε516: 8000 L·M^−1·cm^−1
  Molar Extinction Coefficient QIII ε543: 5000 L·M^−1·cm^−1
  Molar Extinction Coefficient QII ε598: 4000 L·M^−1·cm^−1
  Molar Extinction Coefficient QI ε650: 12000 L·M^−1·cm^−1
  Fluorescence quantum yield Φf: 0.18
  Singlet oxygen quantum yield Φ∆: 0.47
HUVEC
  Light doses 50 values: 4.9 ± 0.64 J/cm^2
[4]; heparin 2 µg/mL
  Displacement of biotinylated VEGF165 binding onto NRP-1 protein: failed to displace; also recorded: did not show any significant binding at all

## C1=Cc2nc1c(-c1ccccc1)c1ccc([nH]1)c(-c1ccccc1)c1nc(c(-c3ccccc3)c3ccc([nH]3)c2-c2ccccc2)C=C1 [TPP]
[5]; in toluene
  Fluorescence quantum yield of standard reference Φf(ref): 0.11

## O=C([O-])c1c(Cl)c(Cl)c(Cl)c(Cl)c1-c1c2cc(I)c(=O)c(I)c-2oc2c(I)c([O-])c(I)cc12.[Na+].[Na+] [rose Bengal]
[5]; in ethanol
  Singlet oxygen quantum yield of standard reference ΦΔ(ref): 0.68

## DKPPR [DKPPR]
[4]
  IC50: 1 µM

## TKPPR
[1]; free peptides
  Displacement of the binding of VEGF165 to recombinant NRP-1 (ELISA): able to displace the binding of VEGF165

## TKPRR [TKPRR]
[4]
  IC50: 1 µM

## TPC–Ahx–ATWLPPR: TPC coupled via 6-aminohexanoic acid spacer to peptide ATWLPPR; group's earlier NRP-1 targeting conjugate ({TPC-Ahx}-ATWLPPR; reading uncertain; also: printed as TPC–Ahx–ATWLPPR)
[1]
  Displacement of the binding of VEGF165: managed to displace the binding of VEGF165
[1]; read-out: IC50, displacement of VEGF165 binding to NRP-1
  IC50: 171 µM
[6]
  Time up to which conjugate is found in plasma after intravenous injection: up to 24 h
[2]; n = 6
  Shake Flask Method Distribution Coefficient, D (log D pH7.4): 2.61 ± 0.2
[3]
  Molar Extinction Coefficient Soret ε415: 74000 L·M^−1·cm^−1
  Molar Extinction Coefficient QIV ε516: 6800 L·M^−1·cm^−1
  Molar Extinction Coefficient QIII ε543: 4900 L·M^−1·cm^−1
  Molar Extinction Coefficient QII ε598: 2600 L·M^−1·cm^−1
  Molar Extinction Coefficient QI ε650: 12000 L·M^−1·cm^−1
  Fluorescence quantum yield Φf: 0.18
  Singlet oxygen quantum yield Φ∆: 0.39
HUVEC
  Enhancement of photodynamic activity versus TPC: 10.4 fold
  Light doses 50 values: 0.47 ± 0.23 J/cm^2
[7]
  MS signal of peak m/z 616 (attributed to the TPC moiety) in plasma: not detected
[8]
  Time for which conjugate could be detected in the plasma: ≥ 48 h
